Experimental data as given in the NIST ThermoML archive (doi:10.1021/je900050z).

Conditions: Liquid

CCC(C)O (centres undefined) [butan-2-ol]
Conditions	vapor or sublimation pressure [kPa]
314.47 K	6.08
315.36 K	6.43
316.21 K	6.81
317.61 K	7.45
318.57 K	7.92
319.37 K	8.35
319.58 K	8.45
320.18 K	8.77
321.05 K	9.23
322.03 K	9.8
322.68 K	10.19
323.15 K	10.48
323.41 K	10.64
324.05 K	11.04
324.72 K	11.47
325.27 K	11.84
325.92 K	12.31
326.66 K	12.81
327.32 K	13.16
328.28 K	14.03
329.05 K	14.61
329.91 K	15.31
330.49 K	15.79
331.11 K	16.31
331.58 K	16.71
332.17 K	17.25
332.81 K	17.87
333.15 K	18.2
333.28 K	18.33
333.65 K	18.68
334.23 K	19.24
334.69 K	19.71
335.19 K	20.2
335.69 K	20.71
336.28 K	21.33
336.77 K	21.85
337.23 K	22.35
337.72 K	22.87
338.08 K	23.28
338.6 K	23.87
339.07 K	24.43
339.5 K	24.95
339.9 K	25.43
340.34 K	25.97
340.95 K	26.79
341.4 K	27.36
341.87 K	27.99
342.34 K	28.63
342.89 K	29.37
343.15 K	29.76
343.32 K	29.97
343.81 K	30.67
344.25 K	31.31
344.71 K	31.99
345.14 K	32.63
345.6 K	33.33
346.02 K	33.99
346.45 K	34.67
346.86 K	35.32
347.28 K	36.01
347.65 K	36.63
348.06 K	37.31
348.45 K	37.99
348.85 K	38.64
349.21 K	39.29
349.58 K	39.95
350.15 K	40.97
350.75 K	42.05
351.25 K	43.03
351.74 K	43.96
352.26 K	44.97
353.08 K	46.6
353.15 K	46.75
353.6 K	47.65
354.06 K	48.61
354.53 K	49.61
355 K	50.63
355.45 K	51.63
355.81 K	52.39
356.23 K	53.33
356.8 K	54.63
357.37 K	55.96
357.99 K	57.41
358.5 K	58.67
359.06 K	60.03
359.62 K	61.41
360.13 K	62.73
360.61 K	63.97
361.1 K	65.29
361.64 K	66.71
362.1 K	67.99
362.63 K	69.43
363.07 K	70.69
363.57 K	72.12
364 K	73.36
364.48 K	74.72
364.9 K	76
365.33 K	77.31
365.76 K	78.65
366.18 K	79.95
366.63 K	81.35
367.04 K	82.63
367.47 K	84.03
367.88 K	85.39
368.27 K	86.71
368.68 K	88.05
369.08 K	89.41
369.43 K	90.67
369.79 K	91.91
370.19 K	93.33
370.56 K	94.44
370.94 K	96
371.32 K	97.35
371.65 K	98.59
